Measurements taken from patent US9005651B2, “Sustained drug delivery system” (Tohoku University, priority 2009, dated 2015).

How the values were obtained:
[1] = Low molecular weight drug (FA) slow release from PEGDM:TEGDM sheets; type: physicochemical; settings: PEGDM:TEGDM 100:0 to 0:100, capsules in PBS
Procedure: Sheets having changed mixing ratios of PEGDM (Mn 750) and TEGDM (Mw 286.3) were prepared to evaluate their low molecular weight drug slow-releasing capability. The low molecular weight drug used sodium fluorescein (FA, a fluorescent contrast agent clinically used) as a model. PEG sheets were prepared in the 6 patterns of PEGDM:TEGDM=100:0, 95:5, 90:10, 80:20, 50:50, and 0:100; FA was capsulated; and the capsules were immersed in PBS to measure the fluorescence intensity at regular intervals. […] The slow-releasing capability was irrespective of the presence of collagen particles.

[2] = Implantation of capsule on the sclera of rabbit's eye (fluorescence of hydatoid, fundus camera, tissue); type: in vivo; settings: 3 days after implantation
Procedure: A capsule (the collagen particle concentration of its porous PEG sheet: 500 mg/ml) packed with a PEG pellet of FA was implanted on the sclera of the eye of rabbits. One eye of each rabbit was used as a non-implantation control. The conjunctiva was incised 5 mm and the capsule was implanted therethrough into 2 to 15 mm of the corneal limbus. The capsule was fixed by suture. The conjunctiva was finally sutured to terminate the implantation. The hydatoid (100 μl) was collected every other week and the fluorescence intensity thereof was measured using a fluorescence plate reader. Using a fluorescence camera, the fluorochrome in the device implanted on the sclera and the distribution of the pigment slowly released were photographed. […] In FIG. 22, the fluorescences of the cell nucleus (blue fluorescence) and the model drug (green fluorescence) are observed. In FIG. 22, the mark * represents the position in which the PEG capsule was present. […] When the drug passes through RP, the drug is fed to RE. Because RP has a high barrier function, the pigment stops here and is concentrated.

O=C([O-])c1ccccc1-c1c2ccc(=O)cc-2oc2cc([O-])ccc12.[Na+].[Na+] [FA, sodium fluorescein]
FA slow-releasing capability versus PEGDM:TEGDM ratio [1]: increased mixing ratio of TEGDM suppressed the FA slow-releasing capability
tissue fluorescence distribution [2]: strong fluorescence was observed in the sclera (SC) and the subretina (RP)
